Source: patent publication US20240207422A1, “NERVE TARGETING PEPTIDE CONJUGATES AND METHODS OF USE” (Alume Biosciences, Inc., priority 2022, published 2024)

Tested on: human nerve extract
Assay: Phage display selection on plates coated with human nerve extract (Plated Nerve2), NextGen sequence counts
Format: binding
Settings: unique sequence count (relative enrichment); Plated Nerve2 only
Experimental: Several m13 phage libraries were constructed expressing randomized variants of a parent peptide (QVPWEEPYYVVKKS-SGGL; SEQ ID NO: 576). In particular, the first 14 amino acids of the parent peptide were randomized using degenerate oligonucleotide synthesis to obtain a diverse set of peptides with a mutation rate of about 50% per residue.
To accomplish this, synthesis was carried out by the XXK codon design approach, where X is any base and K is G or T. To bias synthesis towards the parent sequence, synthesis was carried out at each X position with a mixture of about 70%-85% of the parent nucleotide and 15-30% of the remaining 3 nucleotides. The resulting molecules were inserted into fADL-1e (Antibody Design Laboratories), which is a type 3 phage display vector having a cloning site on the N-terminal side of the full-length gene III protein. The fusion proteins are directed to the periplasm by the PelB leader peptide, which is inserted in the vector […].
Collectively, the phage display libraries used in the screens comprised about 600 million peptides, with sequencing analysis confirming a mutation rate of about 50% per residue.
Phage libraries were independently processed, as follows, with five biological samples: two independent samples of excised human nerve tissue, one sample of a human nerve extract, and two independent samples of human muscle tissue, as follows:
Human Nerve Extracts: Phage libraries were incubated for up to 24 hours at 4° C. in 96 well plates that had been coated with a human nerve extract. Plates were then washed with PBS and phage were eluted using 0.2M glycine pH 2.0. Phage supernatants where then neutralized with Tris pH 9.0 prior to plating on TG1 bacteria and LB agar plates. Colonies were counted to determine titer followed by DNA preparation of pools of phage and NextGen sequencing. After rounds of selection, phage were pooled and amplified for iterative selection. Phage that eluted by 0.2M glycine pH 2.0 (the nerve binders) at each round were sequenced. NextGen sequencing of pools after 2, 3 and 4 rounds of selection were used to isolate candidate sequences that were further analyzed using bioinformatics.
NextGen sequencing of pools after 2, 3 and 4 rounds of selection were used to isolate candidate sequences from each of the five samples. These five data sets were then analyzed as described in the next section.
Peptide and vector sequences were translated starting at the first start codon in the nucleotide sequence. […] Trimmed peptides with identical sequences were combined and quantified according to their frequency (count).
Following processing, an R script was written to merge the unique peptide sequences (with counts 6 or greater) from the 5 different data sets to analyze the overlap between nerve and muscle binding activity.
For the single Nerve2, Nerve3, and Plated Nerve2 (pn2) subsets, the number of counts for each group was set at a threshold giving rise to at least 100 peptides. […] As highlighted in yellow in FIG. 1B, the representative group also included 6 unique peptides overlapping between nerve2 and nerve3, 200 unique peptides overlapping between nerve2 and plated nerve2 (at least 60 counts), 4 unique peptides overlapping between nerve3 and plated nerve2. Finally, as highlighted in green in FIG. 1B, the representative group also included […] common to the nerve2, nerve3, and plated nerve2 sets.

How did the Count turn out when 523 (HVPSQEWYYDLHKS) [compound 523] was run?
The Count was 40.

524 (QFPWHKQFYVGKSS) [compound 524] was tested. Which Count did it give?
The Count was 40.

For 525 (DFQIVGPSYVGKNS) [compound 525], which Count is on record?
The Count was 39.

How did the Count turn out when 526 (HLPSEKPWYDLDGS) [compound 526] was run?
Its Count is 39.

How did the Count turn out when 527 (HVSWSTSKYVVNHS) [compound 527] was run?
The Count was 39.

For 528 (QISWEDPDYGVRKS) [compound 528], which Count is on record?
Its Count is 39.

529 (QVPCEQQSCVVKNS) [compound 529] was tested. Which Count did it give?
The Count was 39.

For 530 (LFTGQQSYYEVQES) [compound 530], which Count is on record?
Its Count is 38.

For 531 (LVSPTGPIYVMNKS) [compound 531], which Count is on record?
The Count was 38.

For 532 (QFASEEPYHVMKKP) [compound 532], which Count is on record?
Its Count is 38.

Which Count does the source give for 533 (QFSRADSQYLVKNS) [compound 533] here?
The Count was 38.

With 534 (QIPLQDPYHVVEKS) [compound 534] as the substance, how does the Count read?
The Count was 38.

For 535 (QLLWGESYSIVKNY) [compound 535], which Count is on record?
Its Count is 38.

With 536 (QLPSQTQNYYDTNA) [compound 536] as the substance, how does the Count read?
The Count was 38.

How did the Count turn out when 537 (QLRSEDTYYTMQSY) [compound 537] was run?
Its Count is 38.

538 (SVAGQQHYYVSTKP) [compound 538] was tested. Which Count did it give?
The Count was 38.

For 539 (HLPCKKSFYACKKH) [compound 539], which Count is on record?
Its Count is 37.

For 540 (HVRFAEPYYAGKTS) [compound 540], which Count is on record?
Its Count is 37.

For 541 (LLTGAEPYYLGKRS) [compound 541], which Count is on record?
The Count was 37.

How did the Count turn out when 542 (QLPGAEAQNVVKYS) [compound 542] was run?
The Count was 37.

For 543 (QLRFDEHHSVVTHS) [compound 543], which Count is on record?
Its Count is 37.

With 544 (QYPWEQRYYFERKS) [compound 544] as the substance, how does the Count read?
Its Count is 37.

For 545 (RVTWEGPYNSVKKS) [compound 545], which Count is on record?
Its Count is 37.

Which Count does the source give for 546 (DVALGESHYNVKKY) [compound 546] here?
Its Count is 36.

For 547 (DVPNDLPSYLVKNS) [compound 547], which Count is on record?
Its Count is 36.

With 548 (EFPYQESEYIVKQS) [compound 548] as the substance, how does the Count read?
The Count was 36.

With 549 (GLPSKEPYYVVKPA) [compound 549] as the substance, how does the Count read?
The Count was 36.

How did the Count turn out when 550 (HVPWDDQYYVWRTN) [compound 550] was run?
Its Count is 36.

For 551 (HVQWDQTSYVVKNS) [compound 551], which Count is on record?
Its Count is 36.

Which Count does the source give for 552 (HVTSDDSYYAVKNP) [compound 552] here?
Its Count is 36.

For 553 (QDPFGDLYYVTKMS) [compound 553], which Count is on record?
The Count was 36.

554 (QFPYDEPYNVVKKS) [compound 554] was tested. Which Count did it give?
The Count was 36.

How did the Count turn out when 555 (QHPWKEQYYMATKP) [compound 555] was run?
The Count was 36.

556 (QLNSEEPYYHFKNY) [compound 556] was tested. Which Count did it give?
Its Count is 36.

With 557 (QLPTNDPYYVLMES) [compound 557] as the substance, how does the Count read?
Its Count is 36.
